The text below walks through data of patent publication US4966915A, “L-dopa derivatives or their acid addition salts, process for producing same and their use” (priority 1987, dated 1990).

The structures appear in SMILES notation.

Data set [1] can be described thus: Acute toxicity, oral administration (mice). The data set is classed as in vivo, ddY-strain male mice. Conditions: mortality up to 1 week; for LD50 at 168 h: mouse, in vivo. From the text: Each of the test drugs was suspended in a 0.5% sodium carboxymethylcellulose solution containing 0.1% Tween 80 and orally administered to each of ddY-strain male mice (body weight 24 to 31 g, n=5), and a mortality up to 1 week after administration was observed. Toxicity of test compounds (Compounds A and B) was extremely low. The LD50 value was 6 g/kg or more in both cases.

The nature of data set [2]: Acute toxicity, intraperitoneal administration (mice). The conditions noted are these: for mortality: up to 1 week, n=5. The data set is classed as in vivo, ddY-strain male mice. From the text:
(2) Intraperitoneal administration
Each of the test drugs was suspended in a sterilized physiological saline and intraperitoneally administered to ddY-strain male mice (body weight 24 to 29 g, n=5), and a mortality up to 1 week after administration was observed.

A short description of data set [3]: Concentrations of L-dopa in the lumen and tissue of the small intestine by an in situ ligating loop method (rats). The data set is classed as in vivo, male rats. Conditions: jejunal loop, with 0.4 mg carbidopa. From the text: FIG. 8 illustrates change with time of amounts of Compound A (Δ) and L-dopa (o) after injection of Compound A, and amount of L-dopa (.cndot.) after injection of L-dopa in the lumen of the small intestine of rats according to an in situ ligating loop method.
FIG. 9 illustrates change with time of amounts of Compound A (Δ) and L-dopa (o) after injection of Compound A, and amount of L-dopa (.cndot.) after injection of L-dopa in the tissue of the small intestine of rats according to an in situ ligating loop method.
Measuring concentrations of L-dopa in the lumen and tissue of the small intestine by an in situ ligating loop method (rats)
Eight week-old male rats (n=3) were fasted overnight before the test, and then under ether anesthesia, were incised at the abdomen. An acute loop of 8 cm length was ligated in the jejunum. Compound A (1.47 mg) or 1.00 mg of L-dopa as a control drug was suspended in 0.5 ml of 0.5% sodium carboxymethylcellulose together with 0.4 mg of carbidopa, and the suspension was injected into the loop. The loop was returned in the abdominal cabity and the cut portion was then sewn. After a fixed time, the loop was taken out again and the content in the loop was well washed with a ice-cooled physiological saline. […] In the resulting solutions, the concentration of L-dopa was determined as in Test Example 1 and the concentration of Compound A as follows, respectively. […]

Data set [4] can be described thus: Blood levels of L-dopa after intravenous administration of drugs (rats). The data set is classed as in vivo, SD-strain male rats. The procedure:
FIG. 7 illustrates change with time of a blood level of L-dopa in intravenously administering Compound A (o) and L-dopa (.cndot.) to rats.
Measuring blood levels of L-dopa after intravenous administration of drugs (rats)
Seven to eight week-old SD-strain male rats (n=3) were previously fasted for 18 hours. Twenty milligrams of L-dopa as a control drug or the equimolar amount of Compound A was dissolved in a concentration of 10 mg/ml in a physiolosical saline containing 50% propylene glycol, and the resulting solution was intravenously administered to the rats at a dose of 10 mg eq./kg, calculated as L-dopa. Immediately after administration, or 5, 15, 30, 45, 60, 90, 120, 150, 180 or 240 minutes after administration, 120 μl of blood was collected through a carotid cannula intubated in advance three days before the test using a heparin-treated glass capillary. The blood was treated as in Test Example 1 and then measured for blood levels of L-dopa.

The conditions of data set [5]: cited from earlier work.
[6] abbreviates: concluded from conversion to L-dopa.

For the molecule `CC1(C(=O)Oc2ccc(C[C@H](N)C(=O)O)cc2O)CC1` [Compound B, 4-O-(1-methylcyclopropanecarbonyl)-L-dopa], in data set [1], the toxicity result is “extremely low” and the LD50 at 168 h was at least 6000 mg/kg.

As for `CC(C)(C)C(=O)Oc1ccc(C[C@H](N)C(=O)O)cc1O` [Compound A, 4-O-pivaloyl-L-dopa], the mortality result in data set [2] (1800 mg/kg) was “no case of death was observed”. In addition, the toxicity result in data set [2] (mortality up to 1 week) was “very low”. In addition, in data set [3] (1.47 mg Compound A vs 1.00 mg L-dopa), the “amount of L-dopa in the lumen (washing liquid) and tissue (homogenate) of the small intestine” value is listed as “retained for a longer time with less fluctuation than that after administration of L-dopa”. Further, in data set [3], the “concentration of L-dopa in the lumen and tissue of the small intestine” value is “kept low”. In addition, the “hydrolysis to L-dopa in the systemic circulation” value in data set [4] (10 mg eq./kg as L-dopa) is “rapidly and completely hydrolyzed to L-dopa”. For the same molecule, in data set [4] (10 mg eq./kg as L-dopa, estimated), the “conversion ratio to L-dopa” value is given as “about 100%”. Also, in data set [4] (setting [6]), the bioavailability entry is on record as “high bioavailability” and the toxicity result is on record as “low toxicity”. Besides, in data set [1], the toxicity result is given as “extremely low” and the LD50 at 168 h is at least 6000 mg/kg.

For the molecule `N[C@@H](Cc1ccc(O)c(O)c1)C(=O)O` [L-dopa], the mortality result in data set [2] (1250 mg/kg) is listed as “two of five mice were dead”; in data set [2] (1800 mg/kg), “all the test mice were dead”. Also, the “blood level of L-dopa” value in data set [5] (human, in vivo) was “rapidly increases and falls”. Further, the “appearance of dyskinesias after administration of L-dopa” value in data set [5] (patients, chronic L-dopa therapy) was 1 to 2 h. In addition, in data set [5] (patients), the “elimination of L-dopa from blood” value is given as “rapid elimination”. The molecule further registered a median lethal dose (LD50) at 168 h in data set [1] of 3200 mg/kg.

One may read the LD50 as the dose expected to kill half of the subjects tested. A high value points to a less toxic substance.
